Assay results taken from US10131652B2, “Pyrimidinyloxy benzene derivatives as herbicides” (E. I. DU PONT DE NEMOURS AND COMPANY, priority 2014, dated 2018).
Like-named read-outs stand apart in the source and are kept apart here.

Experiments:
Assay in all cases: Test E pre-/postemergence plant response
Format in all cases: in vivo
[1] = system: bluegrass (annual bluegrass, Poa annua); conditions: scale 0 to 100, read-out: Plant response rating, Bluegrass; for pest or weed control at 16 g/ha: 16 g ai/ha; for pest or weed control at 31 g/ha: 31 g ai/ha; for pest or weed control at 62 g/ha: 62 g ai/ha; for pest or weed control at 125 g/ha: 125 g ai/ha
How it was run: (§1)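 Pre-emergence: seeds sown in silt loam soil and sprayed with test chemicals in a non-phytotoxic solvent/surfactant mix. Post-emergence: plants at 2–18 cm (1- to 4-leaf stage) in peat/vermiculite medium treated with the same formulation. Visual rating versus controls after 7–21 days, 0 (no effect) to 100 (complete control).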

[2] = system: galium (catchweed bedstraw, Galium aparine); conditions: scale 0 to 100, read-out: Plant response rating, Galium; for pest or weed control at 16 g/ha: 16 g ai/ha; for pest or weed control at 31 g/ha: 31 g ai/ha; for pest or weed control at 62 g/ha: 62 g ai/ha; for pest or weed control at 125 g/ha: 125 g ai/ha
How it was run: as §1

[3] = system: winter barley (Hordeum vulgare); conditions: scale 0 to 100, read-out: Plant response rating, Barley, Winter; for plant injury at 16 g/ha: 16 g ai/ha; for plant injury at 31 g/ha: 31 g ai/ha; for plant injury at 62 g/ha: 62 g ai/ha; for plant injury at 125 g/ha: 125 g ai/ha
How it was run: as §1

[4] = system: speedwell (bird's-eye speedwell, Veronica persica); conditions: scale 0 to 100, read-out: Plant response rating, Speedwell; for pest or weed control at 16 g/ha: 16 g ai/ha; for pest or weed control at 62 g/ha: 62 g ai/ha; for pest or weed control at 125 g/ha: 125 g ai/ha
How it was run: as §1

[5] = system: chickweed (common chickweed, Stellaria media); conditions: scale 0 to 100, read-out: Plant response rating, Chickweed; for pest or weed control at 16 g/ha: 16 g ai/ha; for pest or weed control at 31 g/ha: 31 g ai/ha; for pest or weed control at 62 g/ha: 62 g ai/ha; for pest or weed control at 125 g/ha: 125 g ai/ha
How it was run: as §1

[6] = system: spring barley (Hordeum vulgare); conditions: for plant injury at 16 g/ha: 16 g ai/ha; for plant injury at 31 g/ha: 31 g ai/ha; for plant injury at 62 g/ha: 62 g ai/ha; for plant injury at 125 g/ha: 125 g ai/ha
How it was run: as §1

[7] = system: wild mustard (Sinapis arvensis); conditions: Brassica, scale 0 to 100, read-out: Plant response rating, Mustard, Wild; for pest or weed control at 16 g/ha: 16 g ai/ha; for pest or weed control at 31 g/ha: 31 g ai/ha; for pest or weed control at 62 g/ha: 62 g ai/ha; for pest or weed control at 125 g/ha: 125 g ai/ha
How it was run: as §1

[8] = system: windgrass (Apera spica-venti); conditions: scale 0 to 100, read-out: Plant response rating, Windgrass; for pest or weed control at 16 g/ha: 16 g ai/ha; for pest or weed control at 62 g/ha: 62 g ai/ha; for pest or weed control at 125 g/ha: 125 g ai/ha
How it was run: as §1

[9] = system: downy bromegrass (Bromus tectorum); conditions: scale 0 to 100, read-out: Plant response rating, Bromegrass, Downy; for pest or weed control at 16 g/ha: 16 g ai/ha; for pest or weed control at 31 g/ha: 31 g ai/ha; for pest or weed control at 62 g/ha: 62 g ai/ha; for pest or weed control at 125 g/ha: 125 g ai/ha
How it was run: as §1

[10] = system: canarygrass (Phalaris minor); conditions: scale 0 to 100, read-out: Plant response rating, Canarygrass; for pest or weed control at 16 g/ha: 16 g ai/ha; for pest or weed control at 31 g/ha: 31 g ai/ha; for pest or weed control at 62 g/ha: 62 g ai/ha; for pest or weed control at 125 g/ha: 125 g ai/ha
How it was run: as §1

[11] = post-emergence, 31 g ai/ha, Postemergence
[12] = post-emergence, Postemergence, scale 0 to 100, read-out: Plant response rating, Barley, Spring
[13] = pre-emergence, Preemergence, scale 0 to 100, read-out: Plant response rating, Barley, Spring

Fc1cccc(Oc2ncc(Cl)cn2)c1-c1cc(C(F)(F)F)on1 [Compound 168, 5-chloro-2-[2-[5-(trifluoromethyl)-3-isoxazolyl]-3-fluorophenoxy]pyrimidine]
100%: pest or weed control at 125 g/ha ([1]; pre-emergence, Preemergence) | pest or weed control at 62 g/ha ([2]; pre-emergence, Preemergence) | pest or weed control at 125 g/ha ([2]; pre-emergence, Preemergence) | pest or weed control at 125 g/ha ([4]; post-emergence, Postemergence) | pest or weed control at 16 g/ha ([4]; pre-emergence, Preemergence) | pest or weed control at 62 g/ha ([4]; pre-emergence, Preemergence) | pest or weed control at 125 g/ha ([4]; pre-emergence, Preemergence) | pest or weed control at 16 g/ha ([5]; pre-emergence, Preemergence) | pest or weed control at 62 g/ha ([5]; pre-emergence, Preemergence) | pest or weed control at 125 g/ha ([5]; pre-emergence, Preemergence) | pest or weed control at 125 g/ha ([7]; pre-emergence, Preemergence) | pest or weed control at 62 g/ha ([8]; pre-emergence, Preemergence) | pest or weed control at 125 g/ha ([8]; pre-emergence, Preemergence) | pest or weed control at 62 g/ha ([10]; pre-emergence, Preemergence) | pest or weed control at 125 g/ha ([10]; pre-emergence, Preemergence)
5%: pest or weed control at 31 g/ha ([1]; post-emergence, Postemergence) | plant injury at 16 g/ha ([3]; post-emergence, Postemergence) | plant injury at 31 g/ha ([3]; pre-emergence, Preemergence) | pest or weed control at 16 g/ha ([9]; post-emergence, Postemergence)
40%: plant injury at 125 g/ha ([3]; pre-emergence, Preemergence) | pest or weed control at 125 g/ha ([8]; post-emergence, Postemergence) | pest or weed control at 125 g/ha ([9]; pre-emergence, Preemergence)
50%: pest or weed control at 16 g/ha ([5]; post-emergence, Postemergence)
80%: pest or weed control at 62 g/ha ([1]; pre-emergence, Preemergence) | pest or weed control at 62 g/ha ([2]; post-emergence, Postemergence) | pest or weed control at 16 g/ha ([4]; post-emergence, Postemergence) | pest or weed control at 31 g/ha ([5]; pre-emergence, Preemergence) | pest or weed control at 16 g/ha ([7]; pre-emergence, Preemergence) | pest or weed control at 31 g/ha ([7]; pre-emergence, Preemergence)
95%: pest or weed control at 31 g/ha ([7]; post-emergence, Postemergence) | pest or weed control at 62 g/ha ([7]; post-emergence, Postemergence) | pest or weed control at 125 g/ha ([7]; post-emergence, Postemergence) | pest or weed control at 62 g/ha ([7]; pre-emergence, Preemergence)
0%: pest or weed control at 16 g/ha ([1]; pre-emergence, Preemergence) | plant injury at 16 g/ha ([3]; pre-emergence, Preemergence) | plant injury at 16 g/ha [6, 13] | pest or weed control at 16 g/ha ([8]; pre-emergence, Preemergence) | pest or weed control at 16 g/ha ([9]; pre-emergence, Preemergence)
70%: pest or weed control at 62 g/ha ([5]; post-emergence, Postemergence)
60%: pest or weed control at 16 g/ha ([2]; pre-emergence, Preemergence) | pest or weed control at 31 g/ha ([2]; pre-emergence, Preemergence)
75%: pest or weed control at 16 g/ha ([2]; post-emergence, Postemergence) | pest or weed control at 31 g/ha ([2]; post-emergence, Postemergence) | pest or weed control at 31 g/ha [4, 11] | pest or weed control at 16 g/ha ([7]; post-emergence, Postemergence)
35%: plant injury at 125 g/ha [6, 13] | pest or weed control at 125 g/ha ([9]; post-emergence, Postemergence)
85%: pest or weed control at 125 g/ha ([2]; post-emergence, Postemergence)
55%: pest or weed control at 125 g/ha ([10]; post-emergence, Postemergence)
25%: plant injury at 62 g/ha ([3]; pre-emergence, Preemergence) | plant injury at 125 g/ha ([6]; post-emergence, Postemergence, scale 0 to 100 (0 no effect, 100 complete control), read-out: Plant response rating, Barley, Spring) | pest or weed control at 62 g/ha ([8]; post-emergence, Postemergence) | pest or weed control at 62 g/ha ([9]; post-emergence, Postemergence) | pest or weed control at 62 g/ha ([10]; post-emergence, Postemergence)
45%: pest or weed control at 31 g/ha ([5]; post-emergence, Postemergence)
10%: pest or weed control at 16 g/ha ([1]; post-emergence, Postemergence) | pest or weed control at 62 g/ha ([1]; post-emergence, Postemergence) | pest or weed control at 31 g/ha ([1]; pre-emergence, Preemergence) | plant injury at 31 g/ha ([3]; post-emergence, Postemergence) | plant injury at 62 g/ha ([3]; post-emergence, Postemergence) | plant injury at 16 g/ha [6, 12] | pest or weed control at 16 g/ha ([8]; post-emergence, Postemergence) | pest or weed control at 31 g/ha ([9]; pre-emergence, Preemergence) | pest or weed control at 62 g/ha ([9]; pre-emergence, Preemergence)
15%: pest or weed control at 125 g/ha ([1]; post-emergence, Postemergence) | plant injury at 125 g/ha ([3]; post-emergence, Postemergence) | plant injury at 31 g/ha [6, 12] | plant injury at 62 g/ha [6, 12] | plant injury at 31 g/ha [6, 13] | pest or weed control at 31 g/ha [8, 11] | pest or weed control at 31 g/ha ([9]; post-emergence, Postemergence) | pest or weed control at 16 g/ha ([10]; post-emergence, Postemergence) | pest or weed control at 31 g/ha ([10]; post-emergence, Postemergence) | pest or weed control at 16 g/ha ([10]; pre-emergence, Preemergence) | pest or weed control at 31 g/ha ([10]; pre-emergence, Preemergence)
90%: pest or weed control at 62 g/ha ([4]; post-emergence, Postemergence) | pest or weed control at 125 g/ha ([5]; post-emergence, Postemergence)
30%: plant injury at 62 g/ha [6, 13]
